Values quoted from earlier work in patent US9839604B1, “Composition for an anti-aging treatment” (Parham Tabibian, MD, Inc., priority 2014, dated 2017).

What was measured:
[1] = compared with other forms of Vitamin K1 and K2, also remains in the bloodstream longer
[2] = humectant capacity

Compound	levels reached in the bloodstream relative to other forms of Vitamin K1 and K2 [1]	water attracted and bound [2]
CC(C)=CCC/C(C)=C/CC/C(C)=C/CC/C(C)=C/CC/C(C)=C/CC/C(C)=C/CC/C(C)=C/CC1=C(C)C(=O)c2ccccc2C1=O [MK-7]	seven- to eight-fold higher	–
hyaluronic acid	–	up to 1800 times its own weight in water
